From BindingDB's records for doi:10.1111/j.1476-5381.1995.tb15923.x (Zeneca Pharmaceuticals, 1995)
pKi: −log10 of the molar value.

Target: Adenosine receptor A2a (Rattus norvegicus, UniProt P30543)
Sequence (P30543 whole entry): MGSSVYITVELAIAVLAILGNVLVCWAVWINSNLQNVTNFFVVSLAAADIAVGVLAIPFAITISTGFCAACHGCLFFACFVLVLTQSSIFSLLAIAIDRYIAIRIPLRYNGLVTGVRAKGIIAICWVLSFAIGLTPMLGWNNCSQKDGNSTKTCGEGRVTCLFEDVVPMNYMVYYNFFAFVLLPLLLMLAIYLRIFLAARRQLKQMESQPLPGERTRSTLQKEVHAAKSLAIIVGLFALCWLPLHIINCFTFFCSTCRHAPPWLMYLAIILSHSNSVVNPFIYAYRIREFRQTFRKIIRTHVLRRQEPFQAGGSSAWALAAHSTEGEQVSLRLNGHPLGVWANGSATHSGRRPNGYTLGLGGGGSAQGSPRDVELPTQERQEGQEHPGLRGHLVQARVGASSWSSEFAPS

| SMILES | pKi |
| --- | --- |
| Cn1c(=O)c2[nH]c(-c3ccccc3)nc2n(C)c1=O [1,3-Dimethyl-8-phenyl-3,9-dihydro-purine-2,6-dione] | < 5.00 |
| Cn1c(=O)c2[nH]c(-c3ccc(S(=O)(=O)O)cc3)nc2n(C)c1=O [4-(1,3-Dimethyl-2,6-dioxo-2,3,6,7-tetrahydro-1H-purin-8-yl)-benzenesulfonic acid] | < 5.00 |
